The values below come from PMC10693528, “A high-throughput metabolomics in vitro platform for the characterization of hepatotoxicity” (Cell Biology and Toxicology, 2023).

Data set [1] concerns HepG2 cells. The experiment in a line: Cytotoxicity (CellTox Green) in parallel with metabolomics experiments. The following applies: intermediate concentration (C3; C2 for aroclor), 48 h.
Protocol: Commercially available cytotoxicity (CellTox™ Green) and ATP content based (CellTiter-Glo®) assays (Promega GmbH, Walldorf, Germany) were multiplexed in a single 96-well plate following the manufacturer’s instructions. For positive controls, lysis solution 25X was added in wells containing vehicle control treated cells (0.5% DMSO). Then, 10X CellTox Green reagent was added in all wells, plates were shaken for 1 min, and incubated in the dark for 15 min at room temperature. […] Afterwards, wells were washed with PBS, 100 μL of Dulbecco’s MEM media were added to each well and subsequently 100 μL of 1X CellTiter-Glo were added. Plates were shaken for 2 min and incubated in the dark for 8 min at room temperature. Luminescence was measured in the GloMax®-Multi Detection System (Promega) and was normalized to the values of the vehicle control. Cytotoxicity and ATP cell viability analysis were carried out for range finder pre-tests and in parallel with metabolomics experiments in plates handled and treated exactly as the ones used for metabolite profiling.
Data set [2] can be described thus: Cell viability (ATP, CellTiter-Glo) in parallel with metabolomics experiments. The settings on record: human, Percentage of viability (ATP) compared to the vehicle control, n = 6. As to the method:
(§1) HepG2 cells (ECACC, UK, maximum passage number 9) were maintained and grown on Dulbecco’s MEM media supplemented with 1% v/v of penicillin/streptomycin, L-glutamine (200 mM, 1% v/v), non-essential amino acids (100x, 1% v/v), and 10% FBS (PAN-Biotech, Aidenbach, Germany) in 75 cm^2 culture flasks (TPP, Switzerland). For cell passaging (~ 80% confluency) media was removed and cells were washed twice with pre-warmed calcium and magnesium free Dulbecco’s PBS (PAN-Biotech, Aidenbach, Germany). Trypsin was used for cell detachment. Then, 20 mL culture medium was added, and single-cell suspensions were obtained by passing the suspension through a Combitip (Eppendorf, Germany). A fraction of the cell suspension was then transferred to a new culture vessel. For experiments, 15,000 cells per well (passage 5-9) were seeded in 96-well flat-bottom plates (TPP, Switzerland) and incubated for 24 h for cell attachment (37 °C and 5% CO^2). Afterwards, culture media were exchanged, test substances applied, and plates incubated for 48 h (37 °C and 5% CO^2).
For each substance, one 96-well plate was set up with 6 replicates per concentration, 12 replicates for vehicle controls (yielding a final concentration of 0.5% DMSO in the well), 6 replicates for positive controls (Bezafibrate 1000 μM), and 6 replicates for blank controls (media without cells). To minimize potential evaporation, the outer rows and columns of the plate were omitted and filled with PBS instead. Reference samples prepared from lyophilized HepG2 cells were measured in parallel throughout the entire analytical process (technical replicates). […] Lyophilized HepG2 cells reference samples were used to account for variability between plates and in concentration series for linearity checks. After 48 h, the assays were stopped by washing the wells once with 100 μL 0.9% NaCl followed by snap freezing the plates on liquid nitrogen for 5 s. Plates were placed immediately on dry ice and 50 μL ice-cooled isopropanol 80% (v/v) were added to quench metabolism and precipitate proteins. Plates were stored at − 80 °C until LC/ MS analysis.

Data set [3] concerns HepG2 cells. In words: Range finder cell viability (CellTiter-Glo, ATP) dose response. Format: cell-based, human. The following applies: estimated from ATP dose response curve, 48 h, rounded; for EC50: Homo sapiens, HepG2. As for the experimental part:
as §1
In order to define appropriate dose levels, range finder experiments were performed prior to metabolome experiments. Substances were administered to HepG2 cells in increasing concentrations and incubated for 48 h (6 replicates per concentration). Viability and cytotoxicity tests were performed as described previously. Luminescence values resulting from CellTiter-Glo® assays were used to build dose response curves. Curve fitting and effective concentrations (ECs) values were calculated in R using three-parameter Weibull model (W1.3). To obtain a full metabolome-based dose-response effect, five concentrations (EC1, EC5, EC15, EC50, EC85) were selected for metabolome experiments (Table 2). […] Calculated ECs values were rounded to the nearest integer number for dose selection.

Marks after values point to notes of the source that are not given here.

Regarding `O=c1cc(-c2ccccc2)oc2ccc3ccccc3c12` [β-naphthoflavone], the “cytotoxicity (CellTox Green)” value with HepG2 cells [1] is reported as “low cytotoxicity”. Besides, the viability – broadly, a read-out of living cells in per cent, often relative to untreated cells – at 48 h in data set [2] (HepG2 cells, C1, C1, 48 h) came out at 103 ± 4.3%. The viability at 48 h in data set [2] (HepG2 cells, C2, C2, 48 h) is 114 ± 3.7%. The viability at 48 h in data set [2] (HepG2 cells, C3, C3, 48 h) was 104 ± 1.6%. Moreover, the viability at 48 h in data set [2] (HepG2 cells, C4, C4, 48 h) amounted to 34.5 ± 3.4%. Also, the viability at 48 h in data set [2] (HepG2 cells, C5, C5, 48 h) came out at 15 ± 2.1%. In addition, in the data set with HepG2 cells [3], the EC50 (commonly the concentration at which the effect is half-maximal) was 100 µM, the EC1 is 0.1 µM, the EC5 was 1 µM and the EC15 was 10 µM. Further, the EC85 in the data set on HepG2 cells [3] was 700 µM.
Regarding `CC(=O)N1CCN(c2ccc(OCC3COC(Cn4ccnc4)(c4ccc(Cl)cc4Cl)O3)cc2)CC1` (stereo not drawn) [Ketoconazole], the viability at 48 h in data set [2] (HepG2 cells, C1, C1, 48 h) worked out at 102 ± 3.1%; in data set [2] (HepG2 cells, C2, C2, 48 h) it was 102 ± 0.9%; in data set [2] (HepG2 cells, C3, C3, 48 h), 91.2 ± 1.5%; in data set [2] (HepG2 cells, C4, C4, 48 h) it was 64.7 ± 1.5%; in data set [2] (HepG2 cells, C5, C5, 48 h), 28.2 ± 1.9%. Moreover, in the data set on HepG2 cells [3], the EC50 was 10 µM. Moreover, the EC1 in the data set with HepG2 cells [3] is reported as 5^b μM. In addition, the EC5 in the data set with HepG2 cells [3] is 0.2 µM. For the same molecule, in the data set with HepG2 cells [3], the EC15 was 1 µM. Moreover, the EC85 in the data set with HepG2 cells [3] was 50 µM.
In the case of `O=C(O)c1cc(Oc2ccc(C(F)(F)F)cc2Cl)ccc1[N+](=O)[O-]` [Acifluorfen], the “cytotoxicity (CellTox Green)” value with HepG2 cells [1] is reported as “low cytotoxicity”. Moreover, the viability at 48 h in data set [2] (HepG2 cells, C1, C1, 48 h) came out at 105 ± 4.2%; in data set [2] (HepG2 cells, C2, C2, 48 h), 105 ± 4.8%; in data set [2] (HepG2 cells, C3, C3, 48 h), 99.9 ± 1.3%; in data set [2] (HepG2 cells, C4, C4, 48 h), 58.4 ± 1.5%; in data set [2] (HepG2 cells, C5, C5, 48 h) it was 27.8 ± 1.3%. In addition, the concentration for a half-maximal effect (EC50) with HepG2 cells [3] is 500 µM. Further, the EC1 with HepG2 cells [3] is 50 µM. Moreover, the EC5 in the data set on HepG2 cells [3] is 100 µM. The EC15 in the data set on HepG2 cells [3] was 200 µM. Besides, the EC85 in the data set with HepG2 cells [3] was 800 µM.
Take `CCC(CC)Nc1c([N+](=O)[O-])cc(C)c(C)c1[N+](=O)[O-]` [Pendimethalin]: in the data set with HepG2 cells [1], the “cytotoxicity (CellTox Green)” value is “low cytotoxicity”. Also, the viability at 48 h in data set [2] (C1, C1, 48 h) was found to be 98.3 ± 3.9%. Further, the viability at 48 h in data set [2] (C2, C2, 48 h) came out at 100 ± 2.9%. The viability at 48 h in data set [2] (C3, C3, 48 h) turned out to be 82.4 ± 4.9%. In data set [2] (C4, C4, 48 h), the viability at 48 h was 36.1 ± 3.2%. Besides, the viability at 48 h in data set [2] (C5, C5, 48 h) is 18.5 ± 3.2%. Moreover, in the data set on HepG2 cells [3], the EC50 was 94 µM, the EC1 is 24 µM, the EC5 was 39 µM and the EC15 is 56 µM. Further, the EC85 in the data set on HepG2 cells [3] was 157 µM.
In the case of `Cc1cccc(Nc2cc(Cl)nc(SCC(=O)O)n2)c1C` [Wy-14643], the “cytotoxicity (CellTox Green)” value in the data set on HepG2 cells [1] was “low cytotoxicity”. In addition, the viability at 48 h in data set [2] (HepG2 cells, C1, C1, 48 h) was 101 ± 3.8%. Besides, the viability at 48 h in data set [2] (HepG2 cells, C2, C2, 48 h) was 97.1 ± 3.1%. In data set [2] (HepG2 cells, C3, C3, 48 h), the viability at 48 h came out at 94.6 ± 1.8%. Moreover, the viability at 48 h in data set [2] (HepG2 cells, C4, C4, 48 h) was 46.4 ± 2%. In addition, the viability at 48 h in data set [2] (HepG2 cells, C5, C5, 48 h) came to 23.2 ± 1.1%. Further, in the data set on HepG2 cells [3], the half-maximal effective concentration (EC50) was 500 µM, the EC1 is 25 µM, the EC5 was 50 µM and the EC15 is 150 µM. Besides, the EC85 with HepG2 cells [3] is 1000 µM.
